Test results reported in the supplement of paper PMC10307832.

Tests used:
Test in all cases: relative viability (nuclei count vs DMSO), 5 days (fraction); higher = more cells survive
BI-D1870 + Olaparib = compound: CC(C)CCN1c2nc(Nc3cc(F)c(O)c(F)c3)ncc2N(C)C(=O)C1C [BI-D1870] + O=C(c1cc(Cc2n[nH]c(=O)c3ccccc23)ccc1F)N1CCN(C(=O)C2CC2)CC1 [Olaparib] (partner 8 µM)
Summary of the method: (§1)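 Values are medians from duplicate plates. Each reflects relative viability, defined as the nuclei count of treated wells over that of vehicle wells. Lung cancer cell lines in 1536-well plates were pin-tool dosed one day after seeding with one drug alone or with a fixed anchor-drug dose plus five library-drug doses (not always all listed) in √10 steps, then fixed, stained and imaged at 4× after 5 days.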

Zebularine + Linsitinib = compound: O=c1ncccn1[C@@H]1O[C@H](CO)[C@@H](O)[C@H]1O [Zebularine] + C[C@]1(O)C[C@@H](c2nc(-c3ccc4ccc(-c5ccccc5)nc4c3)c3c(N)nccn32)C1 [Linsitinib] (partner 1 µM)
Summary of the method: as §1

Zebularine + Bortezomib = compound: O=c1ncccn1[C@@H]1O[C@H](CO)[C@@H](O)[C@H]1O [Zebularine] + CC(C)C[C@H](NC(=O)[C@H](Cc1ccccc1)NC(=O)c1cnccn1)B(O)O [Bortezomib] (partner 0.002 µM)
Summary of the method: as §1

BI-D1870 + Alpelisib = compound: CC(C)CCN1c2nc(Nc3cc(F)c(O)c(F)c3)ncc2N(C)C(=O)C1C [BI-D1870] + Cc1nc(NC(=O)N2CCC[C@H]2C(N)=O)sc1-c1ccnc(C(C)(C)C(F)(F)F)c1 [Alpelisib] (partner 2 µM)
Summary of the method: as §1

Cell Line	relative viability (BI-D1870 + Olaparib; first compound 0.04 µM)	relative viability (BI-D1870 + Olaparib; first compound 0.1265 µM)	relative viability (BI-D1870 + Olaparib; first compound 0.4 µM)	relative viability (BI-D1870 + Olaparib; first compound 1.265 µM)	relative viability (BI-D1870 + Olaparib; first compound 4 µM)	relative viability (Zebularine + Linsitinib; first compound 1 µM)	relative viability (Zebularine + Linsitinib; first compound 3.162 µM)	relative viability (Zebularine + Linsitinib; first compound 10 µM)	relative viability (Zebularine + Linsitinib; first compound 31.62 µM)	relative viability (Zebularine + Linsitinib; first compound 100 µM)	relative viability (Zebularine + Bortezomib; first compound 1 µM)	relative viability (Zebularine + Bortezomib; first compound 3.162 µM)	relative viability (Zebularine + Bortezomib; first compound 10 µM)	relative viability (Zebularine + Bortezomib; first compound 31.62 µM)	relative viability (Zebularine + Bortezomib; first compound 100 µM)	relative viability (BI-D1870 + Alpelisib; first compound 0.04 µM)	relative viability (BI-D1870 + Alpelisib; first compound 0.1265 µM)	relative viability (BI-D1870 + Alpelisib; first compound 0.4 µM)	relative viability (BI-D1870 + Alpelisib; first compound 1.265 µM)	relative viability (BI-D1870 + Alpelisib; first compound 4 µM)
NCI-H460	0.492	0.384	0.323	0.436	0.179	1.21	1.06	0.272	0.388	0.0365	1.34	1.07	0.241	0.278	0.126	0.613	0.368	0.443	0.347	0.0382
NCI-H650	0.443	0.375	0.366	0.369	0.315	0.931	0.755	0.467	0.43	0.374	0.956	0.654	0.557	0.525	0.357	1.16	0.944	1.14	0.97	0.722
NCI-H661	0.781	0.746	0.738	0.737	0.58	0.499	0.541	0.58	0.539	0.633	0.729	0.824	0.709	0.716	0.785	0.516	0.692	0.427	0.599	0.65
NCI-H1734	0.684	0.545	0.605	0.673	0.463	0.917	0.87	0.526	0.532	0.333	0.988	0.86	0.463	0.379	0.346	0.778	0.619	0.683	0.75	0.597
LXF-289	1.1	1.04	1.06	1.08	0.612	1.08	0.977	0.96	0.78	0.289	1.04	0.993	0.94	0.748	0.301	1.12	0.983	1	1.02	0.899
H3255	0.591	0.526	0.59	0.602	0.526	0.979	1.05	–	0.956	1	0.897	0.736	0.419	0.775	0.942	0.702	0.658	0.722	0.894	0.742
201T	0.901	0.806	0.809	0.851	0.856	1.13	1.02	1.05	1.09	1.04	1.13	1.1	1	1.15	1.11	1	0.935	0.976	1	0.951
NCI-H2126	0.97	0.928	0.895	0.885	0.859	0.743	0.644	0.668	0.624	0.478	1.19	1.02	0.953	1.11	0.809	0.749	0.786	0.781	0.759	0.723
HOP-62	0.545	0.364	0.388	0.525	0.383	1.05	0.848	0.557	0.188	0.118	0.593	0.741	0.547	0.201	0.143	1.21	1	1.02	1.05	1.2
CAL-12T	0.692	0.701	0.672	0.482	0.372	0.819	0.794	0.716	0.896	0.464	1.22	1.01	–	0.68	0.483	1.53	1.14	1.11	1.05	0.793
NCI-H520	0.336	0.355	0.295	0.246	0.162	0.98	1.02	0.47	0.297	0.199	0.831	0.449	0.337	0.231	0.224	0.903	0.76	0.85	0.953	0.764
NCI-H1755	0.855	0.842	0.893	0.896	0.82	0.722	1.01	0.844	1	0.506	1.03	0.952	0.739	1.08	0.415	0.973	0.852	0.983	0.968	0.869
NCI-H2023	0.504	0.444	0.4	0.44	0.252	0.664	0.689	0.604	0.63	0.303	1.08	0.932	0.749	0.646	0.273	0.696	0.552	0.592	0.634	0.552
NCI-H2009	0.831	0.826	0.602	0.619	0.583	1.17	1.15	1.03	0.984	0.386	1.04	0.928	0.876	0.609	0.339	1.28	1.13	1.21	0.995	0.885
